Several values for one entry are separate records, joined by “and”; a condition that tells them apart may be missing. Equal values may be shown once. Read-outs that look alike come from different tables or passages of the source.
Columns and labels:
[1] = target: mixed-valence NgBCCP (P heme); settings: read-out: Kapp (apparent dissociation constant); pH 6
N. europaea BCCP = settings: pH 7; cited from earlier work
P. aeruginosa BCCP = settings: cited from earlier work
NgBCCP = type: biochemical, Neisseria gonorrhoeae
[2] = target: T1, NgBCCP (Neisseria gonorrhoeae bacterial peroxidase) (Neisseria gonorrhoeae, UniProt Q5F5Z9); assay: steady-state kinetics, ABTS oxidation at […] nm; type: biochemical
T1 construct: gene NGO_1769; globular domain only (lipid anchor and AAEAP linker absent), pelB signal peptide, C-terminal His-tag; E. coli BL21(DE3) with pEC86; 38 kDa; di-heme c; Ca-dependent monomer/dimer equilibrium, dimer in crystal
T1 sequence (Q5F5Z9 59-387): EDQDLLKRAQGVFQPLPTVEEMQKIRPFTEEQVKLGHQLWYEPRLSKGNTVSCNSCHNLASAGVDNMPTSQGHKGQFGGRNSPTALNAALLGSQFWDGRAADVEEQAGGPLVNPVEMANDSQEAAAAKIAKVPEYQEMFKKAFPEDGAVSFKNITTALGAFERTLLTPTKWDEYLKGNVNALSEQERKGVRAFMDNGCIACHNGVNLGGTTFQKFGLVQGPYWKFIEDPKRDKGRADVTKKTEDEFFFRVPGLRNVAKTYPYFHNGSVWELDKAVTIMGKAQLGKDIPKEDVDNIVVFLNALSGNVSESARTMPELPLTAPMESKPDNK

| Molecule | Kd [1] [mM] | Ki (N. europaea BCCP) [mM] | inhibition mechanism (P. aeruginosa BCCP) | Ki (P. aeruginosa BCCP; pH 6) [mM] | Vmax app (NgBCCP) | a (α) (NgBCCP) | b (β) (NgBCCP) | mechanism of inhibition (NgBCCP; pH 7.5) | Ki [2] [mM] | mechanism of inhibition (NgBCCP) | Ki (NgBCCP; pH 7.5) [mM] |
| --- | --- | --- | --- | --- | --- | --- | --- | --- | --- | --- | --- |
| azide | 3.8 | 4.7 | non-competitive | 3.1 | 0.56 ± 0.003 µM/s and 0.53 ± 0.004 µM/s and 0.71 ± 0.001 µM/s and 0.66 ± 0.010 µM/s and 0.59 ± 0.001 µM/s | 2.4 | 0.0 | non-competitive/partially competitive |  |  |  |
| c1c[nH]cn1 [imidazole] |  |  |  |  | 0.55 ± 0.01 µM/s and 0.49 ± 0.01 µM/s and 0.48 ± 0.01 µM/s and 0.65 ± 0.01 µM/s and 0.44 ± 0.02 µM/s and 0.63 ± 0.04 µM/s and 0.58 ± 0.02 µM/s | 2.8 | 0.0 | non-competitive/partially competitive | 9 ± 4 | partially uncompetitive | 9 ± 4 |
